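GI50 = concentration required for 50% inhibition of growth. TGI denotes the concentration required for complete inhibition of growth.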
Legend:
Test in all cases: DTP human tumour cell line panel, 384-well format
SK-OV-3 ovarian = system: SK-OV-3 ovarian
MDA-MB-468 breast = system: MDA-MB-468 breast
HS 578T breast = system: HS 578T breast
SN12C renal = system: SN12C renal
OVCAR-8 ovarian = system: OVCAR-8 ovarian
UACC-62 melanoma = system: UACC-62 melanoma
KM12 colon = system: KM12 colon
NCI-H460 NSCLC = system: NCI-H460 NSCLC
NCI-H522 lung = system: NCI-H522 lung
SW-620 colon = system: SW-620 colon
SF-539 CNS = system: SF-539 CNS
NCI-H23 lung = system: NCI-H23 lung
SK-MEL-28 melanoma = system: SK-MEL-28 melanoma
SF-268 CNS = system: SF-268 CNS
HCT-15 colon = system: HCT-15 colon
OVCAR-5 ovarian = system: OVCAR-5 ovarian
RPMI-8226 leukemia = system: RPMI-8226 leukemia
MDA-MB-231 breast = system: MDA-MB-231 breast
A549 NSCLC = system: A549 NSCLC
NCI-H322M lung = system: NCI-H322M lung
786-0 renal = system: 786-0 renal
TK-10 renal = system: TK-10 renal
EKVX NSCLC = system: EKVX NSCLC
BT-549 breast = system: BT-549 breast
K-562 leukemia = system: K-562 leukemia
HOP-62 NSCLC = system: HOP-62 NSCLC
A498 renal = system: A498 renal
SK-MEL-2 melanoma = system: SK-MEL-2 melanoma
T-47D breast = system: T-47D breast
HCT-116 colon = system: HCT-116 colon
NCI-H226 lung = system: NCI-H226 lung
NCI/ADR-RES ovarian = system: NCI/ADR-RES ovarian
HOP-92 NSCLC = system: HOP-92 NSCLC
SR leukemia = system: SR leukemia
MALME-3M melanoma = system: MALME-3M melanoma
OVCAR-3 ovarian = system: OVCAR-3 ovarian
HT29 colon = system: HT29 colon
CAKI-1 renal = system: CAKI-1 renal
HL-60(TB) leukemia = system: HL-60(TB) leukemia
SK-MEL-5 melanoma = system: SK-MEL-5 melanoma
DU-145 prostate = system: DU-145 prostate
MCF7 breast = system: MCF7 breast
PC-3 prostate = system: PC-3 prostate
OVCAR-4 ovarian = system: OVCAR-4 ovarian
CCRF-CEM leukemia = system: CCRF-CEM leukemia
SF-295 CNS = system: SF-295 CNS
COLO 205 colon = system: COLO 205 colon
U251 glioblastoma = system: U251 glioblastoma
HCC-2998 colon = system: HCC-2998 colon
IGROV1 ovarian = system: IGROV1 ovarian
RXF 393 renal = system: RXF 393 renal
M14 melanoma = system: M14 melanoma
UACC-257 melanoma = system: UACC-257 melanoma
MDA-MB-435 melanoma = system: MDA-MB-435 melanoma
ACHN renal = system: ACHN renal
SNB-75 CNS = system: SNB-75 CNS
MOLT-4 leukemia = system: MOLT-4 leukemia
SNB-19 CNS = system: SNB-19 CNS

O=C1CC(c2c[nH]c3ccc(F)cc23)C(=O)N1 (stereo unspecified)
GI50 (SK-OV-3 ovarian): > 100 µM | TGI (SK-OV-3 ovarian): > 100 µM | GI50 (MDA-MB-468 breast): > 100 µM | TGI (MDA-MB-468 breast): > 100 µM | GI50 (HS 578T breast): > 100 µM | TGI (HS 578T breast): > 100 µM | GI50 (SN12C renal): > 100 µM | TGI (SN12C renal): > 100 µM | GI50 (OVCAR-8 ovarian): > 100 µM | TGI (OVCAR-8 ovarian): > 100 µM | GI50 (UACC-62 melanoma): > 100 µM | TGI (UACC-62 melanoma): > 100 µM | GI50 (KM12 colon): > 100 µM | TGI (KM12 colon): > 100 µM | GI50 (NCI-H460 NSCLC): > 100 µM | TGI (NCI-H460 NSCLC): > 100 µM | GI50 (NCI-H522 lung): > 100 µM | TGI (NCI-H522 lung): > 100 µM | GI50 (SW-620 colon): > 100 µM | TGI (SW-620 colon): > 100 µM | GI50 (SF-539 CNS): > 100 µM | TGI (SF-539 CNS): > 100 µM | GI50 (NCI-H23 lung): > 100 µM | TGI (NCI-H23 lung): > 100 µM | GI50 (SK-MEL-28 melanoma): > 100 µM | TGI (SK-MEL-28 melanoma): > 100 µM | GI50 (SF-268 CNS): > 100 µM | TGI (SF-268 CNS): > 100 µM | GI50 (HCT-15 colon): > 100 µM | TGI (HCT-15 colon): > 100 µM | GI50 (OVCAR-5 ovarian): > 100 µM | TGI (OVCAR-5 ovarian): > 100 µM | GI50 (RPMI-8226 leukemia): > 100 µM | TGI (RPMI-8226 leukemia): > 100 µM | GI50 (MDA-MB-231 breast): > 100 µM | TGI (MDA-MB-231 breast): > 100 µM | GI50 (A549 NSCLC): > 100 µM | TGI (A549 NSCLC): > 100 µM | GI50 (NCI-H322M lung): > 100 µM | TGI (NCI-H322M lung): > 100 µM | GI50 ([…]-0 renal): > 100 µM | TGI (786-0 renal): > 100 µM | GI50 (TK-10 renal): > 100 µM | TGI (TK-10 renal): > 100 µM | GI50 (EKVX NSCLC): > 100 µM | TGI (EKVX NSCLC): > 100 µM | GI50 (BT-549 breast): > 100 µM | TGI (BT-549 breast): > 100 µM | GI50 (K-562 leukemia): > 100 µM | TGI (K-562 leukemia): > 100 µM | GI50 (HOP-62 NSCLC): > 100 µM | TGI (HOP-62 NSCLC): > 100 µM | GI50 (A498 renal): > 100 µM | TGI (A498 renal): > 100 µM | GI50 (SK-MEL-2 melanoma): > 100 µM | TGI (SK-MEL-2 melanoma): > 100 µM | GI50 (T-47D breast): > 100 µM | TGI (T-47D breast): > 100 µM | GI50 (HCT-116 colon): > 100 µM | TGI (HCT-116 colon): > 100 µM | GI50 (NCI-H226 lung): > 100 µM | TGI (NCI-H226 lung): > 100 µM | GI50 (NCI/ADR-RES ovarian): > 100 µM | TGI (NCI/ADR-RES ovarian): > 100 µM | GI50 (HOP-92 NSCLC): > 100 µM | TGI (HOP-92 NSCLC): > 100 µM | GI50 (SR leukemia): > 100 µM | TGI (SR leukemia): > 100 µM | GI50 (MALME-3M melanoma): > 100 µM | TGI (MALME-3M melanoma): > 100 µM | GI50 (OVCAR-3 ovarian): > 100 µM | TGI (OVCAR-3 ovarian): > 100 µM | GI50 (HT29 colon): > 100 µM | TGI (HT29 colon): > 100 µM | GI50 (CAKI-1 renal): > 100 µM | TGI (CAKI-1 renal): > 100 µM | GI50 (HL-60(TB) leukemia): > 100 µM | TGI (HL-60(TB) leukemia): > 100 µM | GI50 (SK-MEL-5 melanoma): > 100 µM | TGI (SK-MEL-5 melanoma): > 100 µM | GI50 (DU-145 prostate): > 100 µM | TGI (DU-145 prostate): > 100 µM | GI50 (MCF7 breast): > 100 µM | TGI (MCF7 breast): > 100 µM | GI50 (PC-3 prostate): > 100 µM | TGI (PC-3 prostate): > 100 µM | GI50 (OVCAR-4 ovarian): > 100 µM | TGI (OVCAR-4 ovarian): > 100 µM | GI50 (CCRF-CEM leukemia): > 100 µM | TGI (CCRF-CEM leukemia): > 100 µM | GI50 (SF-295 CNS): > 100 µM | TGI (SF-295 CNS): > 100 µM | GI50 (COLO 205 colon): > 100 µM | TGI (COLO 205 colon): > 100 µM | GI50 (U251 glioblastoma): > 100 µM | TGI (U251 glioblastoma): > 100 µM | GI50 (HCC-2998 colon): > 100 µM | TGI (HCC-2998 colon): > 100 µM | GI50 (IGROV1 ovarian): > 100 µM | TGI (IGROV1 ovarian): > 100 µM | GI50 (RXF 393 renal): > 100 µM | TGI (RXF 393 renal): > 100 µM | GI50 (M14 melanoma): > 100 µM | TGI (M14 melanoma): > 100 µM | GI50 (UACC-257 melanoma): > 100 µM | TGI (UACC-257 melanoma): > 100 µM | GI50 (MDA-MB-435 melanoma): > 100 µM | TGI (MDA-MB-435 melanoma): > 100 µM | GI50 (ACHN renal): > 100 µM | TGI (ACHN renal): > 100 µM | GI50 (SNB-75 CNS): > 100 µM | TGI (SNB-75 CNS): > 100 µM | GI50 (MOLT-4 leukemia): > 100 µM | TGI (MOLT-4 leukemia): > 100 µM | GI50 (SNB-19 CNS): > 100 µM | TGI (SNB-19 CNS): > 100 µM

— PubChem BioAssay (NCI)
